Calls of active or inactive are those of the source. For most assays here, no stated cut-off is given here; in the data, actives have a measured Kd and inactives only a lower limit.
Tests used:
[1] = target: Ribosomal protein S6 kinase alpha-5 (Homo sapiens, UniProt O75582)
[2] = target: Dual specificity mitogen-activated protein kinase kinase 2 (Homo sapiens, UniProt P36507)
[3] = target: T1, Succinate--CoA ligase [ADP-forming] subunit beta, mitochondrial (Homo sapiens, UniProt Q9P2R7)
T1 sequence (Q9P2R7 whole entry): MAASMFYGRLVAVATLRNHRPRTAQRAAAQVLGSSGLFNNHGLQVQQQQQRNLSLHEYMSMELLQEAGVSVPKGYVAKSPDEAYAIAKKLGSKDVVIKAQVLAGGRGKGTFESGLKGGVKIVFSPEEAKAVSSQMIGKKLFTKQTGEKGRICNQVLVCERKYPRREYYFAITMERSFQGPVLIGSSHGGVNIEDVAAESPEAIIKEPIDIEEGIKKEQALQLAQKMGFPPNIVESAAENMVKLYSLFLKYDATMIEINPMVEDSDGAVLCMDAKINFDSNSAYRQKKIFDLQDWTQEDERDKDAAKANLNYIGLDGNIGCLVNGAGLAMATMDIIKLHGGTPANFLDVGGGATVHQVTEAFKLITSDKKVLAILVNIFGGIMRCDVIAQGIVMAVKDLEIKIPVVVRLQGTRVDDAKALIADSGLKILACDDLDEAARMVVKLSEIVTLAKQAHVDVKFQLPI

[4] = target: Mitogen-activated protein kinase kinase kinase 20 (Homo sapiens, UniProt Q9NYL2)
Mitogen-activated protein kinase kinase kinase 20, sequence (Q9NYL2 whole entry): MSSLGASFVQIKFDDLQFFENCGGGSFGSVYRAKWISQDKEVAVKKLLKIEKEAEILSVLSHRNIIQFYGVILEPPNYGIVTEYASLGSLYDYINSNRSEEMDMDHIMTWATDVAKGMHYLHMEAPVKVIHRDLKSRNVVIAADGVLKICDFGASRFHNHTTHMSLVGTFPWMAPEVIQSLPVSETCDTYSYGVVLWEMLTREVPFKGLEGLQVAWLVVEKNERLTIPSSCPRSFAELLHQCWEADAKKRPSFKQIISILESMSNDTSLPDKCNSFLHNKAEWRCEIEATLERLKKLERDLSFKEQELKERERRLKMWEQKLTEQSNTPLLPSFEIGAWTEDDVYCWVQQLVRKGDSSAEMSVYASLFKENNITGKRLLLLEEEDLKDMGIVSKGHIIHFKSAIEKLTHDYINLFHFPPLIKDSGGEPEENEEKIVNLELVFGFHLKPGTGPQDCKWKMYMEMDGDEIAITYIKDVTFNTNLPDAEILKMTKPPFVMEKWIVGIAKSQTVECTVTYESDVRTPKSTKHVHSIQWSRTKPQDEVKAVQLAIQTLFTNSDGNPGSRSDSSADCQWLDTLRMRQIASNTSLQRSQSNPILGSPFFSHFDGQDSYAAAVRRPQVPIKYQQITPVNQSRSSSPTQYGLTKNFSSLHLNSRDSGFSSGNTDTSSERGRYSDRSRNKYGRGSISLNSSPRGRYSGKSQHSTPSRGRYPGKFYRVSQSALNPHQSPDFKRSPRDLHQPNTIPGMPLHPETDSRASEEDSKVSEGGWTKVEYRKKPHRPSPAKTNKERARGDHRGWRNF

[5] = target: Serine/threonine-protein kinase 16 (Homo sapiens, UniProt O75716)
Serine/threonine-protein kinase 16, sequence (O75716 whole entry): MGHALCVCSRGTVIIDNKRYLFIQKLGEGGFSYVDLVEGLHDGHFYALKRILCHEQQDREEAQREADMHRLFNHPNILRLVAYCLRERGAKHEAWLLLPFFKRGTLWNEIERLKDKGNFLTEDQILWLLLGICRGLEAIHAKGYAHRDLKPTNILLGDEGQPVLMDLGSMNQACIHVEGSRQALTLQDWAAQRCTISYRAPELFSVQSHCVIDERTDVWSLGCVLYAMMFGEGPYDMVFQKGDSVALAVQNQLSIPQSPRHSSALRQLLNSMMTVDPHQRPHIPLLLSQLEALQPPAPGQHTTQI

[6] = target: T2, Breakpoint cluster region protein (Homo sapiens, UniProt P11274)
T2 sequence (P11274 whole entry): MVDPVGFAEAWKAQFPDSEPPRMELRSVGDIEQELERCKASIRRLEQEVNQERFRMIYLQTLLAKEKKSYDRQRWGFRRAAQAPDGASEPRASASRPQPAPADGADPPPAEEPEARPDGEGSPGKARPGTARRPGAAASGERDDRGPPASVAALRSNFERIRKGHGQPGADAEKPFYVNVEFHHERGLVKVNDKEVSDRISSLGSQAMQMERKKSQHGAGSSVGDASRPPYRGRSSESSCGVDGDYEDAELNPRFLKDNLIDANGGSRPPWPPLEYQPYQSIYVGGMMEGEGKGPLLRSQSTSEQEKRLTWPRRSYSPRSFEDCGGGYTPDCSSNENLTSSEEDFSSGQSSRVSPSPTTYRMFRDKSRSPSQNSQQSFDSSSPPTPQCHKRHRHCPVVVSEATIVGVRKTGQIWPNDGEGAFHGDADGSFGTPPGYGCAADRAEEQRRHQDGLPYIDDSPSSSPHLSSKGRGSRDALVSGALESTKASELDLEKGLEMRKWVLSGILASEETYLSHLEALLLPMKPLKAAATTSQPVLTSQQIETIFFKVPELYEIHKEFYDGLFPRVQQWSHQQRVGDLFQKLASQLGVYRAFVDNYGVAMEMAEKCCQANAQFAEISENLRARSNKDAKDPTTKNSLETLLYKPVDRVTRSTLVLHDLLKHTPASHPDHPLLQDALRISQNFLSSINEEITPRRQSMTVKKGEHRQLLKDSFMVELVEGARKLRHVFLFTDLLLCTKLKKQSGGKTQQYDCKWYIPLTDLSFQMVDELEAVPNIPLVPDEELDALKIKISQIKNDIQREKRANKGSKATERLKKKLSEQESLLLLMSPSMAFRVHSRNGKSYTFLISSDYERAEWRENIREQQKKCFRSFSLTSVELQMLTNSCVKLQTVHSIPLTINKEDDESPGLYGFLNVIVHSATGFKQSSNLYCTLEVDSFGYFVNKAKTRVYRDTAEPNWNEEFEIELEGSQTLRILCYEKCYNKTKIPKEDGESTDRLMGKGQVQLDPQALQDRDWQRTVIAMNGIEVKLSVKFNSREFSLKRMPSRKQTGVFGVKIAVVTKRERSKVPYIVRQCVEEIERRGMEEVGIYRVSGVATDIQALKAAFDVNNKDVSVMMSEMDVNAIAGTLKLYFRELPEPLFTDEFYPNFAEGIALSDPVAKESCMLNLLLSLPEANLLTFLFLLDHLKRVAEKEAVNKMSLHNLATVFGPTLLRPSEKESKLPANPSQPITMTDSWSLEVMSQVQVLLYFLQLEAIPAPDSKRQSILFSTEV

[7] = target: Citron Rho-interacting kinase (Homo sapiens, UniProt O14578)
Citron Rho-interacting kinase, sequence (O14578 whole entry): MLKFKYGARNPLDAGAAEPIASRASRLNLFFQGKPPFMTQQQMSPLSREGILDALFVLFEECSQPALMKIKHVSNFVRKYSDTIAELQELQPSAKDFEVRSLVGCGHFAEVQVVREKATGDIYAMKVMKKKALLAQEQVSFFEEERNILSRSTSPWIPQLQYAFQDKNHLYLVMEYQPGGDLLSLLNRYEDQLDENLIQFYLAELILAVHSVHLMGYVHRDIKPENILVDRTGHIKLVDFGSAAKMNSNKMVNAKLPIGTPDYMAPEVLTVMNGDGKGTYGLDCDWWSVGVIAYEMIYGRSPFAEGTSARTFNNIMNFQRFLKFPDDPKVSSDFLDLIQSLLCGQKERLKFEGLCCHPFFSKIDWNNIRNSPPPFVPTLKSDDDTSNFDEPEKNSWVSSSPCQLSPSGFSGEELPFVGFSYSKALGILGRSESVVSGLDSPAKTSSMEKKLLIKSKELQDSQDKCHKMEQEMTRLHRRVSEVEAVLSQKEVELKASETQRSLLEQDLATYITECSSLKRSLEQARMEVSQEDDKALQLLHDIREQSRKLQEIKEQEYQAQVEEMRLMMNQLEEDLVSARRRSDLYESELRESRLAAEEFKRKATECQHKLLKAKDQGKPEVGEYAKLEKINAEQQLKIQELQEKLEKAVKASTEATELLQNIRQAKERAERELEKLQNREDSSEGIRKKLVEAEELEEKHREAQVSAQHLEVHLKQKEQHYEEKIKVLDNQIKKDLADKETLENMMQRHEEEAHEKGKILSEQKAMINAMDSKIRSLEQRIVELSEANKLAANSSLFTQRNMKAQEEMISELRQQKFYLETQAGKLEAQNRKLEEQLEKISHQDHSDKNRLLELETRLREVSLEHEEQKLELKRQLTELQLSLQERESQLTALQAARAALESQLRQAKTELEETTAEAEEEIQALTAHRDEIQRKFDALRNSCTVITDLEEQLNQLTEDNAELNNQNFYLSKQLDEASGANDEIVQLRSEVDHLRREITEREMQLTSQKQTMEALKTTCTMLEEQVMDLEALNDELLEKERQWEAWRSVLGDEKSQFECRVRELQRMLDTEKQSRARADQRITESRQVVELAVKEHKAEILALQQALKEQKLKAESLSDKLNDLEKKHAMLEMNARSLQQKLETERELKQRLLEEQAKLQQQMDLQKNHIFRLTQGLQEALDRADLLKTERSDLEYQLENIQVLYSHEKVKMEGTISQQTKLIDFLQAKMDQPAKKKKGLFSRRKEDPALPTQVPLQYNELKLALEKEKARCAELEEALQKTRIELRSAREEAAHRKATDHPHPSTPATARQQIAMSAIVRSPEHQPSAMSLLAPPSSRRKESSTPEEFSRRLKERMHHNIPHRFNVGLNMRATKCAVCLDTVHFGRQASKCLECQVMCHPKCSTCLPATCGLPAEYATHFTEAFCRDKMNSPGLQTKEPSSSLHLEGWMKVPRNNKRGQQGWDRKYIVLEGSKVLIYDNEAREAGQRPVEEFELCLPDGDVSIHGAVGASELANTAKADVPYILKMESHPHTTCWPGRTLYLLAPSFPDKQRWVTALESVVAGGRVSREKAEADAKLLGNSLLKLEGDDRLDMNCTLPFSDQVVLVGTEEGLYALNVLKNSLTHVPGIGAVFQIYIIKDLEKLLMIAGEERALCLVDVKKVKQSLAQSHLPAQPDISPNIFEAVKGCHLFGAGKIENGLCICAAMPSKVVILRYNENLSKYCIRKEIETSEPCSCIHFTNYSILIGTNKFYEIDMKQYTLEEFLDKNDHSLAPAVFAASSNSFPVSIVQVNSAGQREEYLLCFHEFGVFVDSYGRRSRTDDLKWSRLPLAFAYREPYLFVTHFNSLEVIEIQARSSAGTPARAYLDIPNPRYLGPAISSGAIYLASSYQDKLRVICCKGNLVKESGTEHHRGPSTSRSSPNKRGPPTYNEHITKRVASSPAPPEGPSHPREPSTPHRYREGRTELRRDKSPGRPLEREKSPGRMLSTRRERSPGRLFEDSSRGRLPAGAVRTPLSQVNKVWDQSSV

Dual specificity mitogen-activated protein kinase kinase 2, sequence (P36507 whole entry): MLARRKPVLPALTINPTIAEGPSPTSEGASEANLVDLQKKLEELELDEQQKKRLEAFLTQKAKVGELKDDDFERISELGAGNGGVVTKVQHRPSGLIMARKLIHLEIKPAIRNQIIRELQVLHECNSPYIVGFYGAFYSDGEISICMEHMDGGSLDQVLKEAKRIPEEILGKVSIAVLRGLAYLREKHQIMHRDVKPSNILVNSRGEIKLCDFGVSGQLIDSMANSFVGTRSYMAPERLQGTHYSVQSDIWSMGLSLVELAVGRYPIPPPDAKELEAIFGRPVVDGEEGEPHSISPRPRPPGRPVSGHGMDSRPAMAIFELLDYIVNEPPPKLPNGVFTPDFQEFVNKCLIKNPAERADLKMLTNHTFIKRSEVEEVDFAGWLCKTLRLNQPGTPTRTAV
Ribosomal protein S6 kinase alpha-5, sequence (O75582 whole entry): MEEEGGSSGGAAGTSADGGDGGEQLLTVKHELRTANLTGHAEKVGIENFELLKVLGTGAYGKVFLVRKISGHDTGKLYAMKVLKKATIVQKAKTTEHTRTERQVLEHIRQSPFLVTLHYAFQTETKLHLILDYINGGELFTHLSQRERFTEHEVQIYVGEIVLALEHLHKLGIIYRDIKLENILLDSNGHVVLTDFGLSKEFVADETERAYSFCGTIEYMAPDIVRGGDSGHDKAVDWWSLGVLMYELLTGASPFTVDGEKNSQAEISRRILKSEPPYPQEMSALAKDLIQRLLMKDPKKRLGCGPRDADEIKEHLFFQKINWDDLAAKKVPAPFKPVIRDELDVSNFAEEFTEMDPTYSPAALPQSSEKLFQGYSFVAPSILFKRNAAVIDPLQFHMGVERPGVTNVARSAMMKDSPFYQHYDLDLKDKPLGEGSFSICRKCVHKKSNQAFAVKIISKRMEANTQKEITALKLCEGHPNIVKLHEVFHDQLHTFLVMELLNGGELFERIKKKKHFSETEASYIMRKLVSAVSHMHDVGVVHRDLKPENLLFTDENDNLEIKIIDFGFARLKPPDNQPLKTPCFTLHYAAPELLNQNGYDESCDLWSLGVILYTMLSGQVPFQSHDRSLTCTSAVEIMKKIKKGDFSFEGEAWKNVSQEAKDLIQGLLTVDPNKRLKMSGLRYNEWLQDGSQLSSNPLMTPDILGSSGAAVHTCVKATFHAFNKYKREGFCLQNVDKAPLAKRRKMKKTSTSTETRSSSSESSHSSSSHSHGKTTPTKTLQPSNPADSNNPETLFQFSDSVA

Row | Kd [1] | Kd [2] | Kd [3] | Kd [4] | Kd [5] | Kd [6] | Kd [7] | Structure (SMILES)
1 | > 30 µM (inactive) | > 30 µM (inactive) | > 30 µM (inactive) | > 30 µM (inactive) | > 30 µM (inactive) | > 30 µM (inactive) | > 30 µM (inactive) | CNC(=O)c1ccc(C)c(-n2c(C)cc(OCc3ccc(F)cc3F)c(Br)c2=O)c1 [PH-797804]
2 | > 30 µM (inactive) | > 30 µM (inactive) | > 30 µM (inactive) | 0.065 µM (active) | > 30 µM (inactive) | 0.015 µM (active) | > 30 µM (inactive) | Cc1ccc(NC(=O)c2ccc(CN3CC[C@H](N(C)C)C3)c(C(F)(F)F)c2)cc1Nc1nccc(-c2cncnc2)n1 [BAFETINIB]
3 | > 30 µM (inactive) | > 30 µM (inactive) | > 30 µM (inactive) | > 30 µM (inactive) | > 30 µM (inactive) | 0.011 µM (active) | > 30 µM (inactive) | O=C(O)[C@]1(Cc2cccc(Nc3nccs3)n2)CC[C@@H](Oc2cccc(Cl)c2F)CC1 [MK-5108]

The next lines start with the compound.

Row | Structure (SMILES) | Kd [1] | Kd [2] | Kd [3] | Kd [4] | Kd [5] | Kd [6] | Kd [7]
4 | CO[C@H]1C[C@@H]2CC[C@@H](C)[C@@](O)(O2)C(=O)C(=O)N2CCCC[C@H]2C(=O)O[C@H]([C@H](C)C[C@@H]2CC[C@@H](OCCO)[C@H](OC)C2)CC(=O)[C@H](C)/C=C(\C)[C@@H](O)[C@@H](OC)C(=O)[C@H](C)C[C@H](C)/C=C/C=C/C=C/1C [EVEROLIMUS] | > 30 µM (inactive) | > 30 µM (inactive) | > 30 µM (inactive) | > 30 µM (inactive) | > 30 µM (inactive) | > 30 µM (inactive) | > 30 µM (inactive)
5 | Cn1cc(-c2ccc(F)c(C(F)(F)F)c2)nc1C1CCN(c2ncnc3[nH]ncc23)CC1 [LY-2584702] | > 30 µM (inactive) | > 30 µM (inactive) | > 30 µM (inactive) | > 30 µM (inactive) | > 30 µM (inactive) | > 30 µM (inactive) | > 30 µM (inactive)
6 | CC(C)Nc1cc(-c2c[nH]c(C(=O)N[C@H](CO)c3cccc(Cl)c3)c2)c(Cl)cn1 [ULIXERTINIB] | > 30 µM (inactive) | > 30 µM (inactive) | > 30 µM (inactive) | > 30 µM (inactive) | > 30 µM (inactive) | > 30 µM (inactive) | > 30 µM (inactive)
7 | COc1ccc(-c2ccc3c(N4CCOC[C@@H]4C)nc(N4CCOC[C@@H]4C)nc3n2)cc1CO [AZD-8055] | > 30 µM (inactive) | > 30 µM (inactive) | > 30 µM (inactive) | > 30 µM (inactive) | > 30 µM (inactive) | > 30 µM (inactive) | > 30 µM (inactive)
8 | Cc1ccc(-n2nc(C(C)(C)C)cc2NC(=O)NCc2cc(F)ccc2Oc2ccc3c(cnn3CCO)c2)cc1 [PEXMETINIB] | > 30 µM (inactive) | > 30 µM (inactive) | > 30 µM (inactive) | 1.25 µM (active) | > 30 µM (inactive) | 0.681 µM (active) | > 30 µM (inactive)
9 | CNC(=O)c1ccc(-c2cnc3ncc(Cc4ccc5ncccc5c4)n3n2)cc1F [CAPMATINIB] | > 30 µM (inactive) | > 30 µM (inactive) | > 30 µM (inactive) | > 30 µM (inactive) | > 30 µM (inactive) | > 30 µM (inactive) | > 30 µM (inactive)
